Experimental data published in PubChem BioAssay AID248 (DTP/NCI, 2004).
Where “and” joins values, the source holds several entries; their conditions need not be identical. Equal entries are not always repeated. Inconclusive results and toxic doses are left out. Cut-off read from the data, not from the text of the source: active = T/C of 150% or more; inactive = T/C below 125%.

System: L1210 leukemia ip in BDF1 mice, survival T/C
Assay: NCI In Vivo Anticancer Drug Screen. Data for tumor model L1210 Leukemia (intraperitoneal) in B6D2F1 (BDF1) mice
Conditions: endpoint: mean survival time, higher = longer survival
Method in brief: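 Tumor cells were implanted, animals were treated, and survival was followed. The result divides the treated measurement by the vehicle-control measurement.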

[1] = dose: 100.0 mg/kg/injection, schedule: Q04DX002 (ip), vehicle: Klucel (hydroxypropylcellulose) (HPC)
[2] = dose: 100.0 mg/kg/injection, schedule: Q04DX003 (ip), vehicle: saline with Tween-80
[3] = dose: 100.0 mg/kg/injection, schedule: Q01DX001 (ip), vehicle: saline
[4] = dose: 200.0 mg/kg/injection, schedule: Q01DX001 (ip), vehicle: saline
[5] = dose: 400.0 mg/kg/injection, schedule: Q01DX001 (ip), vehicle: saline
[6] = dose: 25.0 mg/kg/injection, schedule: Q01DX009 (ip), vehicle: saline
[7] = dose: 100.0 mg/kg/injection, schedule: Q01DX001 (ip), vehicle: saline with Tween-80
[8] = dose: 200.0 mg/kg/injection, schedule: Q01DX001 (ip), vehicle: saline with Tween-80
[9] = dose: 400.0 mg/kg/injection, schedule: Q01DX001 (ip), vehicle: saline with Tween-80
[10] = dose: 100.0 mg/kg/injection, schedule: Q04DX002 (ip), vehicle: saline
[11] = dose: 200.0 mg/kg/injection, schedule: Q04DX002 (ip), vehicle: saline

Measured: T/C

OC(COc1cccc2ccccc12)CN1CCCCC1 (centres undefined)
inactive: dose: 25.0 mg/kg/injection, schedule: Q04DX002 (ip), vehicle: Klucel (hydroxypropylcellulose) (HPC) 106 % of control | dose: 50.0 mg/kg/injection, schedule: Q04DX002 (ip), vehicle: Klucel (hydroxypropylcellulose) (HPC) 98 % of control | [1] 92 % of control

CC(C)(C)C1CCC(C(=O)O)CC1 (centres undefined)
inactive: dose: 50.0 mg/kg/injection, schedule: Q01DX009 (ip), vehicle: gum acacia 102 % of control | dose: 100.0 mg/kg/injection, schedule: Q01DX009 (ip), vehicle: gum acacia 103 % of control | dose: 100.0 mg/kg/injection, schedule: Q01DX009 (ip), vehicle: saline with Tween-80 95 % of control and 97 % of control | dose: 100.0 mg/kg/injection, schedule: Q04DX002 (ip), vehicle: gum acacia 100 % of control | dose: 100.0 mg/kg/injection, schedule: Q04DX003 (ip), vehicle: gum acacia 106 % of control | [2] 102 % of control and 89 % of control | dose: 200.0 mg/kg/injection, schedule: Q01DX009 (ip), vehicle: gum acacia 105 % of control | dose: 200.0 mg/kg/injection, schedule: Q01DX009 (ip), vehicle: saline with Tween-80 94 % of control and 97 % of control | dose: 200.0 mg/kg/injection, schedule: Q04DX002 (ip), vehicle: gum acacia 110 % of control | dose: 200.0 mg/kg/injection, schedule: Q04DX003 (ip), vehicle: gum acacia 106 % of control | dose: 200.0 mg/kg/injection, schedule: Q04DX003 (ip), vehicle: saline with Tween-80 100 % of control and 94 % of control | dose: 400.0 mg/kg/injection, schedule: Q01DX009 (ip), vehicle: saline with Tween-80 97 % of control | dose: 400.0 mg/kg/injection, schedule: Q04DX002 (ip), vehicle: gum acacia 110 % of control | dose: 400.0 mg/kg/injection, schedule: Q04DX003 (ip), vehicle: saline with Tween-80 89 % of control

CCCCS(=O)(=O)N1CCC(C)CC1
inactive: [1] 87 % of control | dose: 200.0 mg/kg/injection, schedule: Q04DX002 (ip), vehicle: Klucel (hydroxypropylcellulose) (HPC) 91 % of control | dose: 400.0 mg/kg/injection, schedule: Q04DX002 (ip), vehicle: Klucel (hydroxypropylcellulose) (HPC) 94 % of control

CCOC(=O)c1[nH]c2ccsc2c1C[N+]1(C)CCCCC1
inactive: dose: 12.5 mg/kg/injection, schedule: Q01DX001 (ip), vehicle: saline with Tween-80 105 % of control | dose: 25.0 mg/kg/injection, schedule: Q01DX001 (ip), vehicle: saline with Tween-80 103 % of control

CC(C)(N)CCC(C)(C)NCCCN
inactive: dose: 100.0 mg/kg/injection, schedule: Q01DX009 (ip), vehicle: water 95 % of control | dose: 100.0 mg/kg/injection, schedule: Q04DX003 (ip), vehicle: water 100 % of control | dose: 200.0 mg/kg/injection, schedule: Q01DX009 (ip), vehicle: water 98 % of control | dose: 200.0 mg/kg/injection, schedule: Q04DX003 (ip), vehicle: water 106 % of control | dose: 400.0 mg/kg/injection, schedule: Q04DX003 (ip), vehicle: water 97 % of control

COc1ccc(-c2c(C)c(C)[nH]c(=O)c2C#N)c(OCc2ccccc2)c1OC
inactive: [3] 101 % of control | [4] 101 % of control | [5] 93 % of control

NCCN1CCc2ccccc2C1
inactive: dose: 6.25 mg/kg/injection, schedule: Q01DX009 (ip), vehicle: saline 93 % of control | dose: 12.5 mg/kg/injection, schedule: Q01DX009 (ip), vehicle: saline 106 % of control | [6] 102 % of control

CCSC(=O)Nc1cccc(OC(=O)NC)c1
inactive: [7] 100 % of control | [8] 97 % of control | [9] 97 % of control

Cc1cc(N(CCOS(C)(=O)=O)CCOS(C)(=O)=O)ccc1C=Nc1ccc(-c2nc(Cc3ccccc3)sc2C)cc1
inactive: dose: 12.5 mg/kg/injection, schedule: Q01DX009 (ip), vehicle: Klucel (hydroxypropylcellulose) (HPC) 115 % of control | dose: 66.0 mg/kg/injection, schedule: Q04DX003 (ip), vehicle: Klucel (hydroxypropylcellulose) (HPC) 115 % of control

C[n+]1csc2ccccc21
inactive: [3] 108 % of control | [4] 103 % of control | [5] 103 % of control

Cc1cc(C)nc(NCCCCC(N)C(=O)O)n1 (centres undefined)
inactive: dose: 50.0 mg/kg/injection, schedule: Q04DX002 (ip), vehicle: saline 104 % of control | [10] 104 % of control | [11] 101 % of control

CSc1nnnc2ccccc12
inactive: dose: 37.5 mg/kg/injection, schedule: Q04DX002 (ip), vehicle: saline with Tween-80 113 % of control | dose: 75.0 mg/kg/injection, schedule: Q04DX002 (ip), vehicle: saline with Tween-80 92 % of control

CSc1nc(N)cc(NCc2ccccc2)n1
inactive: [7] 93 % of control | [8] 95 % of control | [9] 100 % of control

C=CCc1c[nH]c(=S)[nH]c1=O.[Hg]
inactive: dose: 3.12 mg/kg/injection, schedule: Q01DX001 (ip), vehicle: Klucel (hydroxypropylcellulose) (HPC) 98 % of control | dose: 6.0 mg/kg/injection, schedule: Q01DX009 (ip), vehicle: Klucel (hydroxypropylcellulose) (HPC) 98 % of control | dose: 6.0 mg/kg/injection, schedule: Q04DX003 (ip), vehicle: Klucel (hydroxypropylcellulose) (HPC) 97 % of control | dose: 6.25 mg/kg/injection, schedule: Q01DX001 (ip), vehicle: Klucel (hydroxypropylcellulose) (HPC) 98 % of control | dose: 12.0 mg/kg/injection, schedule: Q01DX009 (ip), vehicle: Klucel (hydroxypropylcellulose) (HPC) 94 % of control | dose: 12.0 mg/kg/injection, schedule: Q04DX003 (ip), vehicle: Klucel (hydroxypropylcellulose) (HPC) 100 % of control | dose: 12.5 mg/kg/injection, schedule: Q01DX001 (ip), vehicle: Klucel (hydroxypropylcellulose) (HPC) 93 % of control and 96 % of control | dose: 50.0 mg/kg/injection, schedule: Q01DX001 (ip), vehicle: Klucel (hydroxypropylcellulose) (HPC) 93 % of control

CCCC[N+](C)(C)CCCOC(=O)C1C2CC3OC(=O)C1C3C2 (centres undefined)
inactive: dose: 12.5 mg/kg/injection, schedule: Q01DX003 (ip), vehicle: saline with Tween-80 97 % of control | dose: 25.0 mg/kg/injection, schedule: Q01DX003 (ip), vehicle: saline with Tween-80 100 % of control | dose: 50.0 mg/kg/injection, schedule: Q01DX003 (ip), vehicle: saline with Tween-80 97 % of control | dose: 50.0 mg/kg/injection, schedule: Q04DX003 (ip), vehicle: saline with Tween-80 101 % of control | [2] 103 % of control

CC(=O)C[N+]12CN3CN(CN(C3)C1)C2
inactive: [6] 96 % of control | dose: 50.0 mg/kg/injection, schedule: Q01DX005 (ip), vehicle: saline 103 % of control | dose: 50.0 mg/kg/injection, schedule: Q01DX009 (ip), vehicle: saline 111 % of control | dose: 100.0 mg/kg/injection, schedule: Q01DX005 (ip), vehicle: saline 103 % of control | dose: 100.0 mg/kg/injection, schedule: Q01DX009 (ip), vehicle: saline 109 % of control | [10] 96 % of control | [11] 107 % of control
